From ChEMBL document CHEMBL1777692, “Elucidation of common pharmacophores from analysis of targeted metabolites transported by the multispecific drug transporter-Organic anion transporter1 (Oat1)” (Bioorg Med Chem, 2011)

Tests used:
[1] = target: T1, Solute carrier family 22 member 6 (Rattus norvegicus, UniProt O35956); assay: Inhibition of rat Oat1 expressed in Xenopus oocytes; assay type: cell-based, Oocyte
T1 sequence (O35956 whole entry): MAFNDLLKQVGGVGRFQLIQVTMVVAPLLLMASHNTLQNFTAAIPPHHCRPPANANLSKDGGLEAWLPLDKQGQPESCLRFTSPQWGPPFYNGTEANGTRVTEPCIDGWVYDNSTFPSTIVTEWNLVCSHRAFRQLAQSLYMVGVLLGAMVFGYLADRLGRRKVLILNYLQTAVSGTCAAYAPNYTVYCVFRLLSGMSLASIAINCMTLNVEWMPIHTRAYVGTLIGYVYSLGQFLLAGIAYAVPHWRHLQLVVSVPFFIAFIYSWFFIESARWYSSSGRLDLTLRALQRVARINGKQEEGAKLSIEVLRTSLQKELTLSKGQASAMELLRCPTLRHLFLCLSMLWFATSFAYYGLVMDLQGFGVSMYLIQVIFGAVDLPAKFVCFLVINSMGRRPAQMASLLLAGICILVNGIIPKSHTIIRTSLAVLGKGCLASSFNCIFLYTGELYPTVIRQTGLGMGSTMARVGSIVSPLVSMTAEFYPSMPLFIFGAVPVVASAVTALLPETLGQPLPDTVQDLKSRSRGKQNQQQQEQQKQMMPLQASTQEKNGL

[2] = target: T1, Solute carrier family 22 member 6; assay: Inhibition of rat Oat1 expressed in pig […] cells; assay type: cell-based

Ki [1] | Ki [2] | SMILES
1100 µM | – | CCSC[C@H](NC(C)=O)C(=O)O
– | > 100 µM | CCc1cccc2c3c([nH]c12)C(CC)(CC(=O)O)OCC3 (centres undefined) [ETODOLAC]
– | 52 µM | CC[C@H](C)C(=O)O[C@H]1C[C@H](O)C=C2C=C[C@H](C)[C@H](CC[C@@H](O)C[C@@H](O)CC(=O)O)[C@H]21 [PRAVASTATIN]

SMILES | Ki [1] | Ki [2]
C[C@]12CC[C@@H]3c4ccc(O)cc4CC[C@H]3[C@@H]1CC[C@@H]2O[C@@H]1O[C@H](C(=O)O)[C@@H](O)[C@H](O)[C@H]1O [ESTRADIOL 17B GLUCURONIDE] | – | > 300 µM
